Measurements published in US7160900B2, “Tetrahydropyridino or piperidino heterocyclic derivatives” (Taisho Pharmaceutical Co., Ltd., priority 2000, dated 2007).

melting point: 160 to 162 °C
SMILES: Cc1cc(N2CC=C(CC(N)=O)CC2)c2cccc(-c3ccc(Cl)cc3Cl)c2n1 [compound 1-05, 2-{1-[8-(2,4-dichlorophenyl)-2-methylquinolin-4-yl]-1,2,3,6-tetrahydropyridin-4-yl}-acetamide]
